Source: patent US20200407712A1, “ARRAY-BASED CYCLIC PEPTIDE LIBRARIES” (HealthTell Inc., priority 2018, published 2020)

Columns and labels:
Streptavidin = Streptavidin (Streptomyces avidinii, UniProt P22629); test: Streptavidin-Alexa Fluor 555 alone on linear and lactam constrained peptide microarrays; type: binding; settings: for Streptavidin Lactam, log 10 transformed median intensity: lactam constrained library peptide; for Streptavidin Linear, log 10 transformed median intensity: linear library peptide
Sequence of Streptavidin (P22629 25-183, species assumed): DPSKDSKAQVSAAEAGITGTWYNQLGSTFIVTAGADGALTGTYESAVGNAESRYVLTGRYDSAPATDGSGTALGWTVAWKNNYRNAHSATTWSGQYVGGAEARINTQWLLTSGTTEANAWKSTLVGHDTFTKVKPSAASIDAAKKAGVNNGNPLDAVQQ
Method: (§1) Peptide arrays were prepared for protein binding by pretreating the arrays in PBST for 30 min at […]. Direct labeled diaphorase (Alexa Fluor™ 555), direct labeled FNR (Alexa Fluor™ 555) and biotinylated ferredoxin were applied to the arrays at 1.0 and 10.0 nM along with direct labeled NISC at 0.001 mg/mL for 1 hr at 37° C. Arrays were washed 3× with PBST and Streptavidin-Alexa Fluor™ 555 was applied to the biotinylated ferredoxin and streptavidin alone arrays. All other arrays received PBST and were incubated for 1 hr at 37° C. Arrays were washed with PBST and p53Ab1-Alexa Fluor™ 647 applied to all arrays to illuminate the edge fiducials for 10 min at 37° C. Following the final incubation arrays were washed in PBST and water, dried and imaged on the ImageXpress ([…]). Triplicate arrays were used for the subsequent analysis except for when rejection of an array was necessary due to the presence of artifacts. Data were analyzed using a custom R script.

[1] = system: Ferredoxin NADP+ Reductase (FNR); test: FNR counter screen on linear and lactam constrained peptide microarrays; type: binding; settings: 10.0 nM protein applied to the array; for FNR Lactam, log 10 transformed median intensity: lactam constrained library peptide; for FNR Linear, log 10 transformed median intensity: linear library peptide
Source text: (§2) Diaphorase is NAD(P)H dehydrogenase (UniProtKB: P15559) encoded by the NQO1 gene. Diaphorase has utility as a model enzyme; for which peptide based synthetic affinity agents to diaphorase are required. A 3.3 million feature peptide array was used to identify potential binding partner peptides for diaphorase. Ferredoxin NADP+ Reductase (FNR) and Ferredoxin are included as counter screens for a specific application, while immunoglobulin depleted human serum (Non-Immunoglobulin Serum Components or NISC) was used as a complex mixture to control for generally sticky peptides.
as §1

Ferredoxin = test: Biotinylated ferredoxin counter screen on linear and lactam constrained peptide microarrays; type: binding; settings: 10.0 nM biotinylated protein, detected with Streptavidin-Alexa Fluor 555; for Ferredoxin Lactam, log 10 transformed median intensity: lactam constrained library peptide; for Ferredoxin Linear, log 10 transformed median intensity: linear library peptide
Source text: as §2, §1

human diaphorase (NQO1) = molecular target: T1, human diaphorase (NQO1) (Homo sapiens, UniProt P15559); test: Alexa Fluor 555-diaphorase binding to linear and lactam constrained peptide microarrays; settings: 10.0 nM protein applied to the array; for Diaphorase Lactam, log 10 transformed median intensity: lactam constrained library peptide; for Diaphorase Linear, log 10 transformed median intensity: linear library peptide
T1 construct: purchased SigmaAldrich
T1 sequence (P15559 whole entry): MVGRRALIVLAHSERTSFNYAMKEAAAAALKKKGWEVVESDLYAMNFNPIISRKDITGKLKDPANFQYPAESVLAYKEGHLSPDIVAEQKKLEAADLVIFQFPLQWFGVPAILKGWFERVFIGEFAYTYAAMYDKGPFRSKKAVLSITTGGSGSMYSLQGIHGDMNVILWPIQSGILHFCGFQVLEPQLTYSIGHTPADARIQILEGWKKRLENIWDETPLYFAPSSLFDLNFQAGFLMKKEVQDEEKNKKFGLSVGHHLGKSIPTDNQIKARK
Source text: as §2
Two wafers from the same synthesis batch were obtained where one wafer was prepared with the lactam chemistry and constrained into a cyclized form. The degree of cyclization was confirmed using the biotinylation assay described in Examples 9, 17, and 19.
as §1
Intensities plotted are the log 10 transformed median intensity from replicate arrays. Coloring of the points represents the density of features at that intensity using a gray-scale map. Light grey represents areas of low peptide numbers while black represents the intensity having the highest number of peptides. The diagonal line is equivalence line. […] CLUSTAL sequence alignment (FIG. 27B) of the sequences indicated similarities in amino acid composition. Highlighted amino acids are conserved in over 60% of the peptides for that position or are a chemically similar amino acid (ie: F and Y).
The sequences contain similar amino acid usage. Four peptides having the highest degree of cyclization in the quality control assay were identified and binding intensities compared to other library peptides having one or two amino acid substitutions as shown in FIG. 28. Substitutional analysis provides confidence in the array data by indicating which residues are important for binding. Dark grey boxes highlight indicate a residue conserved in more than 60% of the peptides. Light grey boxes highlight indicate chemically similar amino acids to the conserved residue. RFI is the intensity is the median replicate log 10 intensity for the 10.0 nM Diaphorase.

[2] = system: Non-Immunoglobulin Serum Components (NISC); test: NISC counter screen on linear and lactam constrained peptide microarrays; type: binding, human; settings: 0.001 mg/mL NISC applied to the array; for NISC Lactam, log 10 transformed median intensity: lactam constrained library peptide; for NISC Linear, log 10 transformed median intensity: linear library peptide
Source text: as §2, §1
Peptides were also selected based on the difference in log 10 transformed intensities between diaphorase and NISC as the counter screen agent (LFGdiaphorase minus LFGNISC). Intensities for 10.0 nM diaphorase and 0.001 mg/mL NISC are shown in FIG. 29A where intensities plotted are the log 10 transformed median intensity from replicate arrays. Coloring of the points represents the density of features at that intensity using a grey colorscale. Light grey represents areas of low peptide numbers while black represents the intensity having the highest number of peptides. The diagonal line is equivalence line. Selectivity vs NISC was not dependent on cyclization as diaphorase also bound the linear forms for some peptides (Table 4). Three peptides having the highest degree of cyclization in the quality control assay were identified and binding intensities compared to other library peptides having one or two amino acid substitutions (FIG. 30) Each CLUSTAL alignment contains the library peptides having a maximum of two substitutions to the parent peptide. Dark grey highlights indicate a residue conserved in more than 60% of the peptides. Light grey highlights indicate chemically similar amino acids to the conserved residue. The amino acid usage is indicated in the sequence logo above the alignment. Substitutional analysis provides confidence in the array data by indicating which residues are important for binding.

IGPNPKNN [library array peptide, tested lactam constrained and linear]
Streptavidin Lactam, log 10 transformed median intensity (Streptavidin): 2.52 | Streptavidin Linear, log 10 transformed median intensity (Streptavidin): 2.52 | FNR Lactam, log 10 transformed median intensity [1]: 2.54 | FNR Linear, log 10 transformed median intensity [1]: 2.57 | Ferredoxin Lactam, log 10 transformed median intensity (Ferredoxin): 2.56 | Ferredoxin Linear, log 10 transformed median intensity (Ferredoxin): 2.59 | Diaphorase Lactam, log 10 transformed median intensity (human diaphorase (NQO1)): 4.34 | Diaphorase Linear, log 10 transformed median intensity (human diaphorase (NQO1)): 4.22 | NISC Lactam, log 10 transformed median intensity [2]: 2.65 | NISC Linear, log 10 transformed median intensity [2]: 2.78

PFSGQPNS [library array peptide, tested lactam constrained and linear]
Streptavidin Lactam, log 10 transformed median intensity (Streptavidin): 2.57 | Streptavidin Linear, log 10 transformed median intensity (Streptavidin): 2.56 | FNR Lactam, log 10 transformed median intensity [1]: 2.58 | FNR Linear, log 10 transformed median intensity [1]: 2.58 | Ferredoxin Lactam, log 10 transformed median intensity (Ferredoxin): 2.59 | Ferredoxin Linear, log 10 transformed median intensity (Ferredoxin): 2.59 | Diaphorase Lactam, log 10 transformed median intensity (human diaphorase (NQO1)): 4.38 | Diaphorase Linear, log 10 transformed median intensity (human diaphorase (NQO1)): 3.70 | NISC Lactam, log 10 transformed median intensity [2]: 2.67 | NISC Linear, log 10 transformed median intensity [2]: 2.63

PGKPNTQ [library array peptide, tested lactam constrained and linear]
Streptavidin Lactam, log 10 transformed median intensity (Streptavidin): 2.51 | Streptavidin Linear, log 10 transformed median intensity (Streptavidin): 2.53 | FNR Lactam, log 10 transformed median intensity [1]: 2.54 | FNR Linear, log 10 transformed median intensity [1]: 2.7 | Ferredoxin Lactam, log 10 transformed median intensity (Ferredoxin): 2.55 | Ferredoxin Linear, log 10 transformed median intensity (Ferredoxin): 2.63 | Diaphorase Lactam, log 10 transformed median intensity (human diaphorase (NQO1)): 4.36 | Diaphorase Linear, log 10 transformed median intensity (human diaphorase (NQO1)): 4.15 | NISC Lactam, log 10 transformed median intensity [2]: 2.68 | NISC Linear, log 10 transformed median intensity [2]: 2.84

PNYSSAP [library array peptide, tested lactam constrained and linear]
Streptavidin Lactam, log 10 transformed median intensity (Streptavidin): 2.52 | Streptavidin Linear, log 10 transformed median intensity (Streptavidin): 2.52 | FNR Lactam, log 10 transformed median intensity [1]: 2.56 | FNR Linear, log 10 transformed median intensity [1]: 2.54 | Ferredoxin Lactam, log 10 transformed median intensity (Ferredoxin): 2.56 | Ferredoxin Linear, log 10 transformed median intensity (Ferredoxin): 2.55 | Diaphorase Lactam, log 10 transformed median intensity (human diaphorase (NQO1)): 4.31 | Diaphorase Linear, log 10 transformed median intensity (human diaphorase (NQO1)): 3.91 | NISC Lactam, log 10 transformed median intensity [2]: 2.63 | NISC Linear, log 10 transformed median intensity [2]: 2.61

PPYPNQYQ [library array peptide, tested lactam constrained and linear]
Streptavidin Lactam, log 10 transformed median intensity (Streptavidin): 2.53 | Streptavidin Linear, log 10 transformed median intensity (Streptavidin): 2.53 | FNR Lactam, log 10 transformed median intensity [1]: 2.55 | FNR Linear, log 10 transformed median intensity [1]: 2.56 | Ferredoxin Lactam, log 10 transformed median intensity (Ferredoxin): 2.58 | Ferredoxin Linear, log 10 transformed median intensity (Ferredoxin): 2.58 | Diaphorase Lactam, log 10 transformed median intensity (human diaphorase (NQO1)): 4.39 | Diaphorase Linear, log 10 transformed median intensity (human diaphorase (NQO1)): 4.04 | NISC Lactam, log 10 transformed median intensity [2]: 2.69 | NISC Linear, log 10 transformed median intensity [2]: 2.69

PPYTYANN [library array peptide, tested lactam constrained and linear]
Streptavidin Lactam, log 10 transformed median intensity (Streptavidin): 2.53 | Streptavidin Linear, log 10 transformed median intensity (Streptavidin): 2.52 | FNR Lactam, log 10 transformed median intensity [1]: 2.54 | FNR Linear, log 10 transformed median intensity [1]: 2.53 | Ferredoxin Lactam, log 10 transformed median intensity (Ferredoxin): 2.56 | Ferredoxin Linear, log 10 transformed median intensity (Ferredoxin): 2.55 | Diaphorase Lactam, log 10 transformed median intensity (human diaphorase (NQO1)): 4.35 | Diaphorase Linear, log 10 transformed median intensity (human diaphorase (NQO1)): 4.00 | NISC Lactam, log 10 transformed median intensity [2]: 2.66 | NISC Linear, log 10 transformed median intensity [2]: 2.63

PTSSYLN [library array peptide, tested lactam constrained and linear]
Streptavidin Lactam, log 10 transformed median intensity (Streptavidin): 2.52 | Streptavidin Linear, log 10 transformed median intensity (Streptavidin): 2.53 | FNR Lactam, log 10 transformed median intensity [1]: 2.53 | FNR Linear, log 10 transformed median intensity [1]: 2.53 | Ferredoxin Lactam, log 10 transformed median intensity (Ferredoxin): 2.56 | Ferredoxin Linear, log 10 transformed median intensity (Ferredoxin): 2.55 | Diaphorase Lactam, log 10 transformed median intensity (human diaphorase (NQO1)): 4.32 | Diaphorase Linear, log 10 transformed median intensity (human diaphorase (NQO1)): 3.75 | NISC Lactam, log 10 transformed median intensity [2]: 2.63 | NISC Linear, log 10 transformed median intensity [2]: 2.61

PYSNVFQG [library array peptide, tested lactam constrained and linear]
Streptavidin Lactam, log 10 transformed median intensity (Streptavidin): 2.54 | Streptavidin Linear, log 10 transformed median intensity (Streptavidin): 2.54 | FNR Lactam, log 10 transformed median intensity [1]: 2.56 | FNR Linear, log 10 transformed median intensity [1]: 2.56 | Ferredoxin Lactam, log 10 transformed median intensity (Ferredoxin): 2.59 | Ferredoxin Linear, log 10 transformed median intensity (Ferredoxin): 2.57 | Diaphorase Lactam, log 10 transformed median intensity (human diaphorase (NQO1)): 4.43 | Diaphorase Linear, log 10 transformed median intensity (human diaphorase (NQO1)): 3.88 | NISC Lactam, log 10 transformed median intensity [2]: 2.72 | NISC Linear, log 10 transformed median intensity [2]: 2.66

QPQSQQSQ [library array peptide, tested lactam constrained and linear]
Streptavidin Lactam, log 10 transformed median intensity (Streptavidin): 2.53 | Streptavidin Linear, log 10 transformed median intensity (Streptavidin): 2.54 | FNR Lactam, log 10 transformed median intensity [1]: 2.55 | FNR Linear, log 10 transformed median intensity [1]: 2.55 | Ferredoxin Lactam, log 10 transformed median intensity (Ferredoxin): 2.56 | Ferredoxin Linear, log 10 transformed median intensity (Ferredoxin): 2.56 | Diaphorase Lactam, log 10 transformed median intensity (human diaphorase (NQO1)): 4.28 | Diaphorase Linear, log 10 transformed median intensity (human diaphorase (NQO1)): 3.42 | NISC Lactam, log 10 transformed median intensity [2]: 2.59 | NISC Linear, log 10 transformed median intensity [2]: 2.59

TFGFNGFP [library array peptide, tested lactam constrained and linear]
Streptavidin Lactam, log 10 transformed median intensity (Streptavidin): 2.53 | Streptavidin Linear, log 10 transformed median intensity (Streptavidin): 2.52 | FNR Lactam, log 10 transformed median intensity [1]: 2.59 | FNR Linear, log 10 transformed median intensity [1]: 2.55 | Ferredoxin Lactam, log 10 transformed median intensity (Ferredoxin): 2.70 | Ferredoxin Linear, log 10 transformed median intensity (Ferredoxin): 2.55 | Diaphorase Lactam, log 10 transformed median intensity (human diaphorase (NQO1)): 4.49 | Diaphorase Linear, log 10 transformed median intensity (human diaphorase (NQO1)): 2.84 | NISC Lactam, log 10 transformed median intensity [2]: 3.49 | NISC Linear, log 10 transformed median intensity [2]: 2.62

TFSSFAPV [library array peptide, tested lactam constrained and linear]
Streptavidin Lactam, log 10 transformed median intensity (Streptavidin): 2.53 | Streptavidin Linear, log 10 transformed median intensity (Streptavidin): 2.53 | FNR Lactam, log 10 transformed median intensity [1]: 2.56 | FNR Linear, log 10 transformed median intensity [1]: 2.55 | Ferredoxin Lactam, log 10 transformed median intensity (Ferredoxin): 2.70 | Ferredoxin Linear, log 10 transformed median intensity (Ferredoxin): 2.55 | Diaphorase Lactam, log 10 transformed median intensity (human diaphorase (NQO1)): 4.52 | Diaphorase Linear, log 10 transformed median intensity (human diaphorase (NQO1)): 2.86 | NISC Lactam, log 10 transformed median intensity [2]: 3.36 | NISC Linear, log 10 transformed median intensity [2]: 2.65

TISYPLTP [library array peptide, tested lactam constrained and linear]
Streptavidin Lactam, log 10 transformed median intensity (Streptavidin): 2.54 | Streptavidin Linear, log 10 transformed median intensity (Streptavidin): 2.53 | FNR Lactam, log 10 transformed median intensity [1]: 2.56 | FNR Linear, log 10 transformed median intensity [1]: 2.53 | Ferredoxin Lactam, log 10 transformed median intensity (Ferredoxin): 2.84 | Ferredoxin Linear, log 10 transformed median intensity (Ferredoxin): 2.55 | Diaphorase Lactam, log 10 transformed median intensity (human diaphorase (NQO1)): 4.55 | Diaphorase Linear, log 10 transformed median intensity (human diaphorase (NQO1)): 2.86 | NISC Lactam, log 10 transformed median intensity [2]: 3.49 | NISC Linear, log 10 transformed median intensity [2]: 2.59
